Laboratory results from US11319274B2, “Process for the preparation of polymorph form B of treprostinil diethanolamine salt” (CHINOIN GYÓGYSZER ÉS VEGYÉSZETI TERMÉKEK GYÁRA ZRT., priority 2018, dated 2022).
Counter-ions that a name gives are not always drawn. Like-named read-outs stand apart in the source and are kept apart here.

Tests used:
[1] = crystalline polymorph, as stated in WO2005/007081; cited from earlier work
[2] = cited from earlier work; for polymorph stability: as stated in WO2005/007081
[3] = hygroscopic character of the polymorph forms; type: physicochemical; conditions: crystals from methanol-methyl tertiary-butyl ether at −70° C. (example 17)
Procedure: (§1) The two polymorph forms (forms A and B) of the crystalline treprostinil diethanolamine salt were first described in patent specification WO2005/007081. The polymorph forms were characterized by their melting point, X-ray powder diffraction pattern, DSC (Differential Scanning calorimetry) and TGA (Thermogravimetric Analysis) curves, and by their hygroscopic character.
(§2) Polymorph form B of treprostinil diethanolamine salt was obtained also if the salt was dissolved in methanol, the solution was set to opalescent with methyl tertiary-butyl ether at 45° C. and then crystallisation was completed at room temperature (yield 87%) (example 16.). […] This form is named polymorph form C (example 17.).

[4] = relative stability / transformation of the polymorph forms; type: physicochemical; conditions: on the basis of the DSC curve; transforms in the DSC tube into the more stable, higher melting form
From the text: as §1
Publication Organic Process & Development, 2009, 13, 242-249. (Crystallization Process Development for Stable Polymorph of Treprostinil; Batra, H.; Penmasta, R.; Phares, K.; Staszewski, J.; Tuladhar, S. M; D. A. Walsh, United Therapeutics) describes in detail the physical characteristics of the two polymorphs and the experiments carried out for their preparation.
as §2
DSC: • Instrument: METTLER TOLEDO DSC1 STARe System, Stare basic V9.30 • Method: Starting temperature: 30° C. • Final temperature: 150° C. • Heating rate: 5° C./min • Amount: 2-6 mg, perforated aluminum crucible (40 μl)

SMILES | hygroscopic character [1] | transformation on standing ([2]; Organic Process & Development, 2009, 13, 242-249) | polymorph stability [2] | transformation in suspension ([2]; suspension in organic solvents (1,4-dioxane, isopropanol, tetrahydrofuran, toluene), agitation at different temperatures, WO2005/007081) | hygroscopic character [3] | polymorph stability [4]
CCCCC[C@H](O)CC[C@@H]1[C@H]2Cc3cccc(OCC(=O)O)c3C[C@H]2C[C@H]1O [form A, (1R,2R,3aS,9aS)-2-[2-Hydroxy-1-[3(S)-hydroxyoctyl]-2,3,3a,4,9,9a-hexahydro-1H-benz[f]inden-5-yloxy] acetic acid diethanolamine salt] | hygroscopic | on standing transforms into the thermodynamically more stable form B | metastable | transforms into form B on agitation |  | 
CCCCC[C@H](O)CC[C@@H]1[C@H]2Cc3cccc(OCC(=O)O)c3C[C@H]2C[C@H]1O [form B, (1R,2R,3aS,9aS)-2-[2-Hydroxy-1-[3(S)-hydroxyoctyl]-2,3,3a,4,9,9a-hexahydro-1H-benz[f]inden-5-yloxy] acetic acid diethanolamine salt] | much less hygroscopic |  | more stable |  |  | 
CCCCC[C@H](O)CC[C@@H]1[C@H]2Cc3cccc(OCC(=O)O)c3C[C@H]2C[C@H]1O [polymorph form C, (1R,2R,3aS,9aS)-2-[2-Hydroxy-1-[3(S)-hydroxyoctyl]-2,3,3a,4,9,9a-hexahydro-1H-benz[f]inden-5-yloxy] acetic acid diethanolamine salt] |  |  |  |  | highly hygroscopic | less stable form
